Measured values taken from ChEMBL document CHEMBL1921720, “A new antifungal briarane diterpenoid from the gorgonian Junceella juncea Pallas” (2011).
The source made the active and inactive calls. The calls are words filed in the database; no cut-off is given here.

Tests used:
Type in all cases: functional
Aspergillus niger = experiment: Antifungal activity against Aspergillus niger at 200 ug/mL after 48 hrs by agar cup diffusion assay; settings: for zone of inhibition at 200 µg/mL: read-out: DIZ
Penicillium chrysogenum = experiment: Antifungal activity against Penicillium chrysogenum at 200 ug/mL after 48 hrs by agar cup diffusion assay
Bacillus subtilis = experiment: Antibacterial activity against Bacillus subtilis at 200 ug/mL after 24 hrs by agar cup diffusion method; settings: for zone of inhibition at 200 µg/mL: read-out: DIZ
Proteus vulgaris = experiment: Antibacterial activity against Proteus vulgaris at 200 ug/mL after 24 hrs by agar cup diffusion method; settings: for zone of inhibition at 200 µg/mL: read-out: DIZ
Candida albicans = experiment: Antifungal activity against Candida albicans at 200 ug/mL after 48 hrs by agar cup diffusion assay; settings: for zone of inhibition at 200 µg/mL: read-out: DIZ
Escherichia coli = experiment: Antibacterial activity against Escherichia coli at 200 ug/mL after 24 hrs by agar cup diffusion method; settings: for zone of inhibition at 200 µg/mL: read-out: DIZ
Bacillus pumilus = experiment: Antibacterial activity against Bacillus pumilus at 200 ug/mL after 24 hrs by agar cup diffusion method; settings: for zone of inhibition at 200 µg/mL: read-out: DIZ

SMILES: C=C1CC[C@H](OC(C)=O)[C@@]2(C)[C@@H](OC(=O)CC(C)C)C[C@@H](OC(C)=O)[C@]3(CO3)[C@@H]2[C@H](OC(C)=O)[C@@]2(O)[C@H](C1)OC(=O)[C@@H]2C
- zone of inhibition at 200 µg/mL (Aspergillus niger): 18 mm
- zone of inhibition at 200 µg/mL (Penicillium chrysogenum; read-out: DIZ): 16 mm
- diameter of the inhibition zone (DIZ) (Bacillus subtilis): inactive
- diameter of the inhibition zone (DIZ) (Proteus vulgaris): inactive
- zone of inhibition at 200 µg/mL (Candida albicans): 17 mm
- diameter of the inhibition zone (DIZ) (Escherichia coli): inactive
- diameter of the inhibition zone (DIZ) (Bacillus pumilus): inactive

SMILES: CC1(C)S[C@@H]2[C@H](NC(=O)[C@H](N)c3ccccc3)C(=O)N2[C@H]1C(=O)O [AMPICILLIN]
- diameter of the inhibition zone (DIZ) (Aspergillus niger): inactive
- diameter of the inhibition zone (DIZ) (Penicillium chrysogenum): inactive
- zone of inhibition at 200 µg/mL (Bacillus subtilis): 17 mm
- zone of inhibition at 200 µg/mL (Proteus vulgaris): 16 mm
- diameter of the inhibition zone (DIZ) (Candida albicans): inactive
- zone of inhibition at 200 µg/mL (Escherichia coli): 17 mm
- zone of inhibition at 200 µg/mL (Bacillus pumilus): 18 mm

SMILES: C=C1CC[C@H](OC(C)=O)[C@@]2(C)[C@@H](OC(C)=O)[C@@H](OC(C)=O)[C@@H](OC(C)=O)[C@]3(CO3)[C@@H]2[C@H](OC(C)=O)[C@]2(O)[C@@H](C)C(=O)O[C@H]2[C@H]1Cl [GEMMACOLIDE A]
- zone of inhibition at 200 µg/mL (Aspergillus niger): 10 mm
- diameter of the inhibition zone (DIZ) (Penicillium chrysogenum): inactive
- zone of inhibition at 200 µg/mL (Bacillus subtilis): 10 mm
- zone of inhibition at 200 µg/mL (Proteus vulgaris): 12 mm
- zone of inhibition at 200 µg/mL (Candida albicans): 8 mm
- zone of inhibition at 200 µg/mL (Escherichia coli): 20 mm
- zone of inhibition at 200 µg/mL (Bacillus pumilus): 19 mm

SMILES: C=C1CC[C@H](OC(C)=O)[C@@]2(C)[C@@H](OC(C)=O)[C@@H](OC(=O)CC(C)C)[C@@H](OC(C)=O)[C@]3(CO3)[C@@H]2[C@H](OC(C)=O)[C@]2(O)[C@@H](C)C(=O)O[C@H]2[C@H]1Cl [GEMMACOLIDE B]
- zone of inhibition at 200 µg/mL (Aspergillus niger): 10 mm
- diameter of the inhibition zone (DIZ) (Penicillium chrysogenum): inactive
- zone of inhibition at 200 µg/mL (Bacillus subtilis): 10 mm
- zone of inhibition at 200 µg/mL (Proteus vulgaris): 12 mm
- zone of inhibition at 200 µg/mL (Candida albicans): 8 mm
- zone of inhibition at 200 µg/mL (Escherichia coli): 20 mm
- zone of inhibition at 200 µg/mL (Bacillus pumilus): 19 mm

SMILES: C=C1CC[C@H](OC(C)=O)[C@@]2(C)[C@@H](OC(=O)CC(C)C)C[C@@H](OC(C)=O)[C@]3(CO3)[C@@H]2[C@H](OC(C)=O)[C@]2(O)[C@@H](C)C(=O)O[C@H]2[C@H]1Cl [JUNCIN H]
- zone of inhibition at 200 µg/mL (Aspergillus niger): 6 mm
- diameter of the inhibition zone (DIZ) (Penicillium chrysogenum): inactive
- zone of inhibition at 200 µg/mL (Bacillus subtilis): 12 mm
- zone of inhibition at 200 µg/mL (Proteus vulgaris): 13 mm
- diameter of the inhibition zone (DIZ) (Candida albicans): inactive
- zone of inhibition at 200 µg/mL (Escherichia coli): 14 mm
- zone of inhibition at 200 µg/mL (Bacillus pumilus): 10 mm

SMILES: CC(=O)OCC1=C/[C@@H]2OC(=O)[C@H](C)[C@@]2(O)[C@@H](OC(C)=O)[C@H]2[C@@]3(CO3)[C@H](OC(=O)CC(C)C)C[C@H](OC(=O)CC(C)C)[C@]2(C)[C@@H](OC(C)=O)/C=C\1 [JUNCIN K]
- zone of inhibition at 200 µg/mL (Aspergillus niger): 8 mm
- diameter of the inhibition zone (DIZ) (Penicillium chrysogenum): inactive
- zone of inhibition at 200 µg/mL (Bacillus subtilis): 13 mm
- zone of inhibition at 200 µg/mL (Proteus vulgaris): 14 mm
- diameter of the inhibition zone (DIZ) (Candida albicans): inactive
- zone of inhibition at 200 µg/mL (Escherichia coli): 15 mm
- zone of inhibition at 200 µg/mL (Bacillus pumilus): 13 mm

SMILES: CC(=O)N1CCN(c2ccc(OCC3COC(Cn4ccnc4)(c4ccc(Cl)cc4Cl)O3)cc2)CC1 (centres undefined) [KETOCONAZOLE]
- zone of inhibition at 200 µg/mL (Aspergillus niger): 24 mm
- diameter of the inhibition zone (DIZ) (Penicillium chrysogenum): inactive
- diameter of the inhibition zone (DIZ) (Bacillus subtilis): inactive
- diameter of the inhibition zone (DIZ) (Proteus vulgaris): inactive
- zone of inhibition at 200 µg/mL (Candida albicans): 21 mm
- diameter of the inhibition zone (DIZ) (Escherichia coli): inactive
- diameter of the inhibition zone (DIZ) (Bacillus pumilus): inactive
